Source: PubChem BioAssay (NCI)
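Test compounds were applied to cells in 96-well plates for 48 hours at 5 doses. TGI is the concentration that stops growth completely.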

Columns and labels:
Experiment in all cases: inhibition of tumour cell growth, NCI panel, 48 h
[1] = tested on: 786-0 renal
[2] = tested on: A498 renal
[3] = tested on: A549 NSCLC
[4] = tested on: ACHN renal
[5] = tested on: CAKI-1 renal
[6] = tested on: CCRF-CEM leukemia
[7] = tested on: COLO 205 colon
[8] = tested on: DLD-1 colon
[9] = tested on: DMS 114 small cell lung
[10] = tested on: DMS 273 small cell lung
[11] = tested on: EKVX NSCLC
[12] = tested on: HCC-2998 colon
[13] = tested on: HCT-116 colon
[14] = tested on: HCT-15 colon
[15] = tested on: HL-60(TB) leukemia
[16] = tested on: HOP-18 NSCLC
[17] = tested on: HOP-62 NSCLC
[18] = tested on: HOP-92 NSCLC
[19] = tested on: HT29 colon
[20] = tested on: IGROV1 ovarian
[21] = tested on: K-562 leukemia
[22] = tested on: KM12 colon
[23] = tested on: KM20L2 colon
[24] = tested on: LOX IMVI melanoma
[25] = tested on: LXFL 529 NSCLC
[26] = tested on: M14 melanoma
[27] = tested on: M19-MEL melanoma
[28] = tested on: MALME-3M melanoma
[29] = tested on: NCI-H23 lung
[30] = tested on: NCI-H460 lung
[31] = tested on: NCI-H522 lung
[32] = tested on: OVCAR-3 ovarian
[33] = tested on: OVCAR-5 ovarian
[34] = tested on: OVCAR-8 ovarian
[35] = tested on: RPMI-8226 leukemia
[36] = tested on: SF-268 CNS
[37] = tested on: SF-295 CNS
[38] = tested on: SF-539 CNS
[39] = tested on: SK-MEL-2 melanoma
[40] = tested on: SK-MEL-28 melanoma
[41] = tested on: SK-MEL-5 melanoma
[42] = tested on: SK-OV-3 ovarian
[43] = tested on: SN12C renal
[44] = tested on: SNB-19 CNS
[45] = tested on: SNB-75 CNS
[46] = tested on: SNB-78 CNS
[47] = tested on: SR leukemia
[48] = tested on: SW-620 colon
[49] = tested on: TK-10 renal
[50] = tested on: U251 CNS
[51] = tested on: UACC-257 melanoma
[52] = tested on: UACC-62 melanoma
[53] = tested on: UO-31 renal
[54] = tested on: MOLT-4 leukemia
[55] = tested on: NCI-H226 lung
[56] = tested on: OVCAR-4 ovarian
[57] = tested on: RXF 393 renal
[58] = tested on: XF 498 CNS

With `CCOC(=O)C1=C(C)N2CCOC2(C)C(C(=O)OC)C1c1cccc(Cl)c1` (stereo not given) as the compound, how does the TGI [1] read?
Its TGI is greater than 100 µM.

What about the TGI [2] of the same compound?
Its TGI is greater than 100 µM.

And the TGI [3]?
The TGI was greater than 100 µM.

And the TGI [4]?
The TGI was greater than 100 µM.

What about the TGI [5] of the same compound?
Its TGI is greater than 100 µM.

What about the TGI [6] of the same compound?
Its TGI is greater than 100 µM.

What about the TGI [7] of the same compound?
The TGI was greater than 100 µM.

And the TGI [8]?
The TGI was greater than 100 µM.

And the TGI [9]?
The TGI was greater than 100 µM.

What about the TGI [10] of the same compound?
The TGI was greater than 100 µM.

What about the TGI [11] of the same compound?
Its TGI is greater than 100 µM.

What about the TGI [12] of the same compound?
Its TGI is greater than 100 µM.

And the TGI [13]?
The TGI was greater than 100 µM.

What about the TGI [14] of the same compound?
The TGI was greater than 100 µM.

And the TGI [15]?
Its TGI is greater than 100 µM.

And the TGI [16]?
Its TGI is greater than 100 µM.

And the TGI [17]?
Its TGI is greater than 100 µM.

And the TGI [18]?
Its TGI is greater than 100 µM.

And the TGI [19]?
Its TGI is greater than 100 µM.

And the TGI [20]?
The TGI was greater than 100 µM.

What about the TGI [21] of the same compound?
The TGI was greater than 100 µM.

And the TGI [22]?
Its TGI is greater than 100 µM.

What about the TGI [23] of the same compound?
Its TGI is greater than 100 µM.

And the TGI [24]?
The TGI was greater than 100 µM.

And the TGI [25]?
The TGI was greater than 100 µM.

What about the TGI [26] of the same compound?
The TGI was greater than 100 µM.

And the TGI [27]?
The TGI was greater than 100 µM.

What about the TGI [28] of the same compound?
The TGI was greater than 100 µM.

And the TGI [29]?
Its TGI is greater than 100 µM.

What about the TGI [30] of the same compound?
Its TGI is greater than 100 µM.

And the TGI [31]?
The TGI was greater than 100 µM.

What about the TGI [32] of the same compound?
The TGI was greater than 100 µM.

What about the TGI [33] of the same compound?
The TGI was greater than 100 µM.

And the TGI [34]?
The TGI was greater than 100 µM.

And the TGI [35]?
Its TGI is greater than 100 µM.

And the TGI [36]?
The TGI was greater than 100 µM.

What about the TGI [37] of the same compound?
Its TGI is greater than 100 µM.

And the TGI [38]?
Its TGI is greater than 100 µM.

And the TGI [39]?
Its TGI is greater than 100 µM.

And the TGI [40]?
The TGI was greater than 100 µM.

What about the TGI [41] of the same compound?
Its TGI is greater than 100 µM.

And the TGI [42]?
Its TGI is greater than 100 µM.

What about the TGI [43] of the same compound?
The TGI was greater than 100 µM.

What about the TGI [44] of the same compound?
The TGI was greater than 100 µM.

And the TGI [45]?
The TGI was greater than 100 µM.

And the TGI [46]?
Its TGI is greater than 100 µM.

And the TGI [47]?
The TGI was greater than 100 µM.

And the TGI [48]?
The TGI was greater than 100 µM.

What about the TGI [49] of the same compound?
Its TGI is greater than 100 µM.

What about the TGI [50] of the same compound?
Its TGI is greater than 100 µM.

What about the TGI [51] of the same compound?
The TGI was greater than 100 µM.

And the TGI [52]?
Its TGI is greater than 100 µM.

And the TGI [53]?
Its TGI is greater than 100 µM.

Which results are given for `COc1ccc(-c2onc(-c3ccc([N+](=O)[O-])cc3)c2C2=NCCCN2)cc1`?
TGI [1]: > 100 µM; TGI [3]: > 100 µM; TGI [4]: > 100 µM; TGI [5]: > 100 µM; TGI [6]: > 100 µM; TGI [7]: > 100 µM; TGI [8]: > 100 µM; TGI [11]: > 100 µM; TGI [12]: > 100 µM; TGI [13]: > 100 µM; TGI [14]: > 100 µM; TGI [15]: > 100 µM; TGI [16]: > 100 µM; TGI [17]: > 100 µM; TGI [19]: > 100 µM; TGI [20]: > 100 µM; TGI [21]: > 100 µM; TGI [22]: > 100 µM; TGI [23]: > 100 µM; TGI [24]: > 100 µM; TGI [25]: > 100 µM; TGI [26]: > 100 µM; TGI [27]: > 100 µM; TGI [28]: > 100 µM; TGI [54]: > 100 µM; TGI [55]: > 100 µM; TGI [29]: > 100 µM; TGI [30]: > 100 µM; TGI [31]: > 100 µM; TGI [32]: 85.5 µM; TGI [56]: > 100 µM; TGI [33]: > 100 µM; TGI [34]: > 100 µM; TGI [35]: > 100 µM; TGI [57]: > 100 µM; TGI [36]: > 100 µM; TGI [37]: > 100 µM; TGI [38]: > 100 µM; TGI [39]: > 100 µM; TGI [40]: > 100 µM; TGI [41]: > 100 µM; TGI [43]: > 100 µM; TGI [44]: > 100 µM; TGI [45]: > 100 µM; TGI [46]: > 100 µM; TGI [47]: > 100 µM; TGI [48]: > 100 µM; TGI [50]: > 100 µM; TGI [51]: > 100 µM; TGI [52]: > 100 µM; TGI [53]: > 100 µM; TGI [58]: > 100 µM
